{
  "source": "patent US20250243196A1",
  "about": "“CITRON KINASE INHIBITORS” (The Cleveland Clinic Foundation, priority 2021, published 2025)",
  "assay_in_all_cases": "KinaseProfiler panel",
  "type_in_all_cases": "biochemical",
  "conditions_in_all_cases": "activity remaining",
  "key": {"IKKβ(h)": {"biological_target": "IKKβ(h) (Homo sapiens (Human), UniProt O14920)", "parameters": "dose or concentration left out as unconfirmed"}, "ULK2(h)": {"biological_target": "ULK2(h) (Homo sapiens (Human), UniProt Q8IYT8)", "parameters": "dose or concentration left out as unconfirmed"}, "LTK(h)": {"biological_target": "LTK(h) (Homo sapiens (Human), UniProt P29376)", "parameters": "dose or concentration left out as unconfirmed"}, "KDR(h)": {"biological_target": "KDR(h) (Homo sapiens (Human), UniProt P35968)", "parameters": "dose or concentration left out as unconfirmed"}, "CaMKIIγ(h)": {"biological_target": "CaMKIIγ(h) (Homo sapiens (Human), UniProt Q13555)", "parameters": "dose or concentration left out as unconfirmed"}, "TSSK1(h)": {"biological_target": "TSSK1(h) (Homo sapiens (Human), UniProt Q9BXA7)", "parameters": "dose or concentration left out as unconfirmed"}, "HIPK1(h)": {"biological_target": "HIPK1(h) (Homo sapiens (Human), UniProt Q86Z02)", "parameters": "dose or concentration left out as unconfirmed"}, "CaMKIIδ(h)": {"biological_target": "CaMKIIδ(h) (Homo sapiens (Human), UniProt Q13557)", "sequence (Q13557 whole entry)": "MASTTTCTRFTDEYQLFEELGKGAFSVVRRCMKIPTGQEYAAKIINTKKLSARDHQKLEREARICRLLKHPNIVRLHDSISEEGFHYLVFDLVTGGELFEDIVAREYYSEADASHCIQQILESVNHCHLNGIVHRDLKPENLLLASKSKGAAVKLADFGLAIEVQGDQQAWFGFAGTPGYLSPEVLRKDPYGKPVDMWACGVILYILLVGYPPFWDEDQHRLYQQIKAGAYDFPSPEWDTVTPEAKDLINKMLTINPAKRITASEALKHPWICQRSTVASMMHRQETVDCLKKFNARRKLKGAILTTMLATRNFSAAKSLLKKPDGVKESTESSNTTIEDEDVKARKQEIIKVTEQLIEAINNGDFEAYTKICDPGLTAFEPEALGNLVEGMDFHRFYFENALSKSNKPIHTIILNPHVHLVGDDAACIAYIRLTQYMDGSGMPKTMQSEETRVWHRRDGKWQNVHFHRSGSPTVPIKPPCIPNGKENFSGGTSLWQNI", "parameters": "dose or concentration left out as unconfirmed"}, "WNK2(h)": {"biological_target": "WNK2(h) (Homo sapiens (Human), UniProt Q9Y3S1)", "parameters": "dose or concentration left out as unconfirmed"}, "GRK7(h)": {"biological_target": "GRK7(h) (Homo sapiens (Human), UniProt Q8WTQ7)", "parameters": "dose or concentration left out as unconfirmed"}, "JAK3(h)": {"biological_target": "JAK3(h) (Homo sapiens (Human), UniProt P52333)", "parameters": "dose or concentration left out as unconfirmed"}, "Axl(h)": {"biological_target": "Axl(h) (Homo sapiens (Human), UniProt P30530)", "sequence (P30530 26-894)": "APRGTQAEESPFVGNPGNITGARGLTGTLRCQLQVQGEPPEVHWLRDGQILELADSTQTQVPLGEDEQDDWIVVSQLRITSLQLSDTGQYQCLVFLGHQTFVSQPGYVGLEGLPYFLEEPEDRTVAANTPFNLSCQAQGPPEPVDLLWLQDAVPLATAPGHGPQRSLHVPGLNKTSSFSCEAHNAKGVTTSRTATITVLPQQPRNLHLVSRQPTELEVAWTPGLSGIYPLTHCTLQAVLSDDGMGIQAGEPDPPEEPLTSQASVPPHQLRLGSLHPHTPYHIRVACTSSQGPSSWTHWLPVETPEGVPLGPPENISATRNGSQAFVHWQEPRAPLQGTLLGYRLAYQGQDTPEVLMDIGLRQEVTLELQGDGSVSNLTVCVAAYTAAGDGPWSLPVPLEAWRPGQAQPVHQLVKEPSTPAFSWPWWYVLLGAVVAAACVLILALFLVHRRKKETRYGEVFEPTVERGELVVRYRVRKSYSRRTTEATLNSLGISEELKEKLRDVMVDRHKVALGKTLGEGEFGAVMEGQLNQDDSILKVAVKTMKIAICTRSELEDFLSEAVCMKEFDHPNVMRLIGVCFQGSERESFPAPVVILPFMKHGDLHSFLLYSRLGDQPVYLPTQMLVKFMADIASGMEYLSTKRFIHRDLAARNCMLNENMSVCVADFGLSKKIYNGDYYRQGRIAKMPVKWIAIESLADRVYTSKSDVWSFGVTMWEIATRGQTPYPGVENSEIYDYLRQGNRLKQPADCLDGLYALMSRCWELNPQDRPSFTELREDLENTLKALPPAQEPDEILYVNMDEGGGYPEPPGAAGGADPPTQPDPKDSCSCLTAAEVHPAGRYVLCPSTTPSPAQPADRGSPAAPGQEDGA", "parameters": "dose or concentration left out as unconfirmed"}, "EphA3(h)": {"biological_target": "EphA3(h) (Homo sapiens (Human), UniProt P29320)", "parameters": "dose or concentration left out as unconfirmed"}, "Ros(h)": {"biological_target": "Ros(h) (Homo sapiens (Human), UniProt P08922)", "parameters": "dose or concentration left out as unconfirmed"}, "Rsk3(h)": {"biological_target": "Rsk3(h) (Homo sapiens (Human), UniProt Q15349)", "parameters": "dose or concentration left out as unconfirmed"}, "CaMKIβ(h)": {"biological_target": "CaMKIβ(h) (Homo sapiens (Human), UniProt Q6P2M8)", "parameters": "dose or concentration left out as unconfirmed"}, "AMPKα1(h)": {"biological_target": "AMPKα1(h) (Homo sapiens (Human), UniProt Q13131)", "parameters": "dose or concentration left out as unconfirmed"}, "MLK3(h)": {"biological_target": "MLK3(h) (Homo sapiens (Human), UniProt Q16584)", "parameters": "dose or concentration left out as unconfirmed"}, "PDGFRα(h)": {"biological_target": "PDGFRα(h) (Homo sapiens (Human), UniProt P16234)", "sequence (P16234 24-1089)": "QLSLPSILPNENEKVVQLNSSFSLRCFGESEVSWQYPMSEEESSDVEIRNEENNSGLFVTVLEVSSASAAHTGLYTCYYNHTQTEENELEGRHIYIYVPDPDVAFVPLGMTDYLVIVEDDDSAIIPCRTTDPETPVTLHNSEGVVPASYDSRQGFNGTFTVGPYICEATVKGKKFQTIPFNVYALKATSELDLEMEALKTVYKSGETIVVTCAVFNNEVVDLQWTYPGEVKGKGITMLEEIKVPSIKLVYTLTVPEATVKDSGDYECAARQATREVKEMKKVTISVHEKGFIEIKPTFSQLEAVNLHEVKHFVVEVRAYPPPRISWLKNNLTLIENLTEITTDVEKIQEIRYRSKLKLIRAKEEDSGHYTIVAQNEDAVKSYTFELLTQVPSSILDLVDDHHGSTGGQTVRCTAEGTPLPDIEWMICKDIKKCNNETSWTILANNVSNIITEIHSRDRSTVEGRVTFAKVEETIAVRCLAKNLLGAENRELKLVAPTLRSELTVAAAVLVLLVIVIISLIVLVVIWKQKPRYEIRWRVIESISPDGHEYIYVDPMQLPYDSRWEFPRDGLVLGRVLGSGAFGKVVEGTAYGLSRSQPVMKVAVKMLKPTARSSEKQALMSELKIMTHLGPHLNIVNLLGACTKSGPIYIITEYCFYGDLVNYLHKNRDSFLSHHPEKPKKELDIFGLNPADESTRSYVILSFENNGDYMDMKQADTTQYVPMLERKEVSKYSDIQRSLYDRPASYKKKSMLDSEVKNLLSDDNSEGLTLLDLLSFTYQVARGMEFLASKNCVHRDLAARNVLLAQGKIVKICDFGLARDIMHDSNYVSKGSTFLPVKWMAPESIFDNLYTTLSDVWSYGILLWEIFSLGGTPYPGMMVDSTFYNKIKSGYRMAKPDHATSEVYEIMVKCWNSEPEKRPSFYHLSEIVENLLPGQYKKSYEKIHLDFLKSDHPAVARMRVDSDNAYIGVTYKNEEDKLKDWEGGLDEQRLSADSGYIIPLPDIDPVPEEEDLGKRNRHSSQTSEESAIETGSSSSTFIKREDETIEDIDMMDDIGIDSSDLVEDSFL", "parameters": "dose or concentration left out as unconfirmed"}, "PRK2(h)": {"biological_target": "PRK2(h) (Homo sapiens (Human), UniProt Q16513)", "sequence (Q16513 whole entry)": "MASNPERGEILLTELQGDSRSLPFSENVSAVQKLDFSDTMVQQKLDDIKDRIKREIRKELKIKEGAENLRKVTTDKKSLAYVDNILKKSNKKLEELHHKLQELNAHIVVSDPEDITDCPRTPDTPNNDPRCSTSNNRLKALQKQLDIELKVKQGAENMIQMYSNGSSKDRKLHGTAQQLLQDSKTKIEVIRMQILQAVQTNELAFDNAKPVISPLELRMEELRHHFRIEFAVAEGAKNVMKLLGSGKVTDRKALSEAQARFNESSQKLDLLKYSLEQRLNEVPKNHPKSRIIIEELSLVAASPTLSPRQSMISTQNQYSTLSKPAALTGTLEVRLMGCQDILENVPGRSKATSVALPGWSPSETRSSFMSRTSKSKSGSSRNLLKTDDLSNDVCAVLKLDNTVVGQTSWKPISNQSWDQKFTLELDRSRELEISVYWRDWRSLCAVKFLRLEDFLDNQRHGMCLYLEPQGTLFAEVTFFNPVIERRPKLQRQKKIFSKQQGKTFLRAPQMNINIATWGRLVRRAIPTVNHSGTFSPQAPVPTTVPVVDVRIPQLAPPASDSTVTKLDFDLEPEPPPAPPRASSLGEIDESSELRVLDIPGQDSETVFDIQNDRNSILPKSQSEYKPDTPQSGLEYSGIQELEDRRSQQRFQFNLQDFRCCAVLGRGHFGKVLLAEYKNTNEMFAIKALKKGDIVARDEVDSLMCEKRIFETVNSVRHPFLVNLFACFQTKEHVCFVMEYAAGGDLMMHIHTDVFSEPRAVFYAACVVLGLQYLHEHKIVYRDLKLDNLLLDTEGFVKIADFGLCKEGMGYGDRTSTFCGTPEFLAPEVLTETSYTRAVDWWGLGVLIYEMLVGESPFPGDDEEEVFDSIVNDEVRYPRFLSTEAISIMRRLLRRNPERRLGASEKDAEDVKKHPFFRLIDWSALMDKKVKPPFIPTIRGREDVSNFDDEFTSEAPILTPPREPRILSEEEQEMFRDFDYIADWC", "parameters": "dose or concentration left out as unconfirmed"}, "NEK6(h)": {"biological_target": "NEK6(h) (Homo sapiens (Human), UniProt Q9HC98)", "parameters": "dose or concentration left out as unconfirmed"}, "IR(h)": {"biological_target": "IR(h) (Homo sapiens (Human), UniProt P06213)", "parameters": "dose or concentration left out as unconfirmed"}, "TrkA(h)": {"biological_target": "TrkA(h) (Homo sapiens (Human), UniProt P04629)", "parameters": "dose or concentration left out as unconfirmed"}, "Hck(h) activated": {"biological_target": "Hck(h) activated (Homo sapiens (Human), UniProt P08631)", "parameters": "dose or concentration left out as unconfirmed"}, "MSK2(h)": {"biological_target": "MSK2(h) (Homo sapiens (Human), UniProt O75676)", "parameters": "dose or concentration left out as unconfirmed"}, "PKCε(h)": {"biological_target": "PKCε(h) (Homo sapiens (Human), UniProt Q02156)", "parameters": "dose or concentration left out as unconfirmed"}, "STK32A(h)": {"biological_target": "STK32A(h) (Homo sapiens (Human), UniProt Q8WU08)", "parameters": "dose or concentration left out as unconfirmed"}, "DAPK1(h)": {"biological_target": "DAPK1(h) (Homo sapiens (Human), UniProt P53355)", "sequence (P53355 whole entry)": "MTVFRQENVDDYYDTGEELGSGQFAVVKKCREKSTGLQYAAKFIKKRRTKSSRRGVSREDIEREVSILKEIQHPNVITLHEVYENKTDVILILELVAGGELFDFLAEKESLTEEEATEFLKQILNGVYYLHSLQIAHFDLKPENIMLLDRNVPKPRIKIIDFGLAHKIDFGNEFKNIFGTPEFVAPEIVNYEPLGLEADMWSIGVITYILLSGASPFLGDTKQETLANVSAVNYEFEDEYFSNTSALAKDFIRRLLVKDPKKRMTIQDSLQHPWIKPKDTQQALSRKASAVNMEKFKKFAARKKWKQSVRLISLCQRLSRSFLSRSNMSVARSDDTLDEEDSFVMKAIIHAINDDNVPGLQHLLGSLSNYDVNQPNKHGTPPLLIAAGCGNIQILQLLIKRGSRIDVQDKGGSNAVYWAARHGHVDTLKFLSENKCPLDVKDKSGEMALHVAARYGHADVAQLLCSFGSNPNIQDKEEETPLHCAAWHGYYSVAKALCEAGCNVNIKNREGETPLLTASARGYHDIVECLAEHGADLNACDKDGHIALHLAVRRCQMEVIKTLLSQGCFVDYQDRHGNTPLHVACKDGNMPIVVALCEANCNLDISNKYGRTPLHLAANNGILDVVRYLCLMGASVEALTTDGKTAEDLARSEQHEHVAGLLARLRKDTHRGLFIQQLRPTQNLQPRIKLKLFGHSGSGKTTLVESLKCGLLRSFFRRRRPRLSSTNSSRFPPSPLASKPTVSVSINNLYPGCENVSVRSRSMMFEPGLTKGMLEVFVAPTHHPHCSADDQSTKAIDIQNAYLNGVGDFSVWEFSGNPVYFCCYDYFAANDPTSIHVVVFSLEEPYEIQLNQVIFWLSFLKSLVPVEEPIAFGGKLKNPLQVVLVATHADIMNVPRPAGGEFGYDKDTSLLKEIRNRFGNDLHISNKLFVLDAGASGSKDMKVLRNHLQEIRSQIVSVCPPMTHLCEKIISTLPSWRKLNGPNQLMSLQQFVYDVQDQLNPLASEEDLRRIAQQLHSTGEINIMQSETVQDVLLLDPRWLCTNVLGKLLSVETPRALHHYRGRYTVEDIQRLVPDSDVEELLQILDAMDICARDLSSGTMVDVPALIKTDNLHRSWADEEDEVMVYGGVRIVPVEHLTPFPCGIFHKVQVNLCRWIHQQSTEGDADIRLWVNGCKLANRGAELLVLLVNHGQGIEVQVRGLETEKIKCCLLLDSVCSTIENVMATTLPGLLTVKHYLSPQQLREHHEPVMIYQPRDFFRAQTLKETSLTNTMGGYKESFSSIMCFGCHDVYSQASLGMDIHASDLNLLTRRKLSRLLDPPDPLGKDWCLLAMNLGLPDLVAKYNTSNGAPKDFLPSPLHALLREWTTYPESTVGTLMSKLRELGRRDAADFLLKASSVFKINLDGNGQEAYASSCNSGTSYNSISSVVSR", "parameters": "dose or concentration left out as unconfirmed"}, "NEK7(h)": {"biological_target": "NEK7(h) (Homo sapiens (Human), UniProt Q8TDX7)", "parameters": "dose or concentration left out as unconfirmed"}, "CLK4(h)": {"biological_target": "CLK4(h) (Homo sapiens (Human), UniProt Q9HAZ1)", "parameters": "dose or concentration left out as unconfirmed"}, "GCN2(h)": {"biological_target": "GCN2(h) (Homo sapiens (Human), UniProt Q9P2K8)", "parameters": "dose or concentration left out as unconfirmed"}, "STK32C(h)": {"biological_target": "STK32C(h) (Homo sapiens (Human), UniProt Q86UX6)"}, "GRK1(h)": {"biological_target": "GRK1(h) (Homo sapiens (Human), UniProt Q15835)", "parameters": "dose or concentration left out as unconfirmed"}},
  "data": [
    {"smiles": "Cc1cc2c(-c3ccc(NC(=O)[C@H](N)CC(C)(C)C)cc3C)ccnc2[nH]1", "note": "[Compound F-90, (2R)-2-Amino-4,4-dimethyl-N-[3-methyl-4-(2-methyl-1H-pyrrolo[2,3-b]pyridin-4-yl)phenyl]pentanamide]", "values": [
      {"measurement": "% Activity", "setting": "IKKβ(h)", "value": 99, "unit": "%"},
      {"measurement": "% Activity", "setting": "ULK2(h)", "value": 98, "unit": "%"},
      {"measurement": "% Activity", "setting": "LTK(h)", "value": 97, "unit": "%"},
      {"measurement": "% Activity", "setting": "KDR(h)", "value": 78, "unit": "%"},
      {"measurement": "% Activity", "setting": "CaMKIIγ(h)", "value": 106, "unit": "%"},
      {"measurement": "% Activity", "setting": "TSSK1(h)", "value": 116, "unit": "%"},
      {"measurement": "% Activity", "setting": "HIPK1(h)", "value": 100, "unit": "%"},
      {"measurement": "% Activity", "setting": "CaMKIIδ(h)", "value": 96, "unit": "%"},
      {"measurement": "% Activity", "setting": "WNK2(h)", "value": 94, "unit": "%"},
      {"measurement": "% Activity", "setting": "GRK7(h)", "value": 98, "unit": "%"},
      {"measurement": "% Activity", "setting": "JAK3(h)", "value": 106, "unit": "%"},
      {"measurement": "% Activity", "setting": "Axl(h)", "value": 91, "unit": "%"},
      {"measurement": "% Activity", "setting": "EphA3(h)", "value": 79, "unit": "%"},
      {"measurement": "% Activity", "setting": "Ros(h)", "value": 97, "unit": "%"},
      {"measurement": "% Activity", "setting": "Rsk3(h)", "value": 112, "unit": "%"},
      {"measurement": "% Activity", "setting": "CaMKIβ(h)", "value": 85, "unit": "%"},
      {"measurement": "% Activity", "setting": "AMPKα1(h)", "value": 120, "unit": "%"},
      {"measurement": "% Activity", "setting": "MLK3(h)", "value": 91, "unit": "%"},
      {"measurement": "% Activity", "setting": "PDGFRα(h)", "value": 116, "unit": "%"},
      {"measurement": "% Activity", "setting": "PRK2(h)", "value": 92, "unit": "%"},
      {"measurement": "% Activity", "setting": "NEK6(h)", "value": 86, "unit": "%"},
      {"measurement": "% Activity", "setting": "IR(h)", "value": 94, "unit": "%"},
      {"measurement": "% Activity", "setting": "TrkA(h)", "value": 105, "unit": "%"},
      {"measurement": "% Activity", "setting": "Hck(h) activated", "value": 111, "unit": "%"},
      {"measurement": "% Activity", "setting": "MSK2(h)", "value": 88, "unit": "%"},
      {"measurement": "% Activity", "setting": "PKCε(h)", "value": 97, "unit": "%"},
      {"measurement": "% Activity", "setting": "STK32A(h)", "value": 90, "unit": "%"},
      {"measurement": "% Activity", "setting": "DAPK1(h)", "value": 82, "unit": "%"},
      {"measurement": "% Activity", "setting": "NEK7(h)", "value": 88, "unit": "%"},
      {"measurement": "% Activity", "setting": "CLK4(h)", "value": 85, "unit": "%"},
      {"measurement": "% Activity", "setting": "GCN2(h)", "value": 101, "unit": "%"},
      {"measurement": "% Activity", "setting": "STK32C(h)", "value": 85, "unit": "%"},
      {"measurement": "% Activity", "setting": "GRK1(h)", "value": 86, "unit": "%"}
    ]}
  ]
}
